# Assay results as given in ChEMBL document CHEMBL6120977, “Structure-Affinity-Pharmacokinetics Relationships of Novel 18F-Labeled 1,4-Diazepane Derivatives for Orexin 1 Receptor Imaging” (J Med Chem, 2024).
# How the values were obtained:
# [1] = biological target: T1, Orexin/Hypocretin receptor type 1 (Homo sapiens, UniProt O43613); test: Displacement of […]5IBOM from OX1R (unknown origin) transfected in CHO cells assessed as inhibition constant incubated for 1.5 hrs by automated gamma-counter analysis; assay type: cell-based
# T1 sequence (O43613 whole entry): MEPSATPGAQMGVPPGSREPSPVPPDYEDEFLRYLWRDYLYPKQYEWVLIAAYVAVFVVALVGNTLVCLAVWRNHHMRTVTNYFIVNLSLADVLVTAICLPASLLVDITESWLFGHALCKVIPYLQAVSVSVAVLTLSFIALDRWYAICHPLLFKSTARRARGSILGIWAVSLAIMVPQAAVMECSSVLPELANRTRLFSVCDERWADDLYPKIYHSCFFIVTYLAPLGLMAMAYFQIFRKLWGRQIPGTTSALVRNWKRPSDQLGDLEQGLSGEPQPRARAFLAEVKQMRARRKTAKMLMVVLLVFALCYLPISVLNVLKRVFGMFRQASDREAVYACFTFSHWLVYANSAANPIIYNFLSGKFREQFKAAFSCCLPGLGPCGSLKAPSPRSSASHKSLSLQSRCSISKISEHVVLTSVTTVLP
# [2] = Selectivity ratio of Ki for OX2R (unknown origin) transfected in CHO cells to Ki for OX1R (unknown origin) transfected in CHO cells; assay type: cell-based
# [3] = biological target: T2, Orexin receptor type 2 (Homo sapiens, UniProt O43614); test: Displacement of […]5IBOM from OX2R (unknown origin) transfected in CHO cells assessed as inhibition constant incubated for 1.5 hrs by automated gamma-counter analysis; assay type: cell-based
# T2 sequence (O43614 whole entry): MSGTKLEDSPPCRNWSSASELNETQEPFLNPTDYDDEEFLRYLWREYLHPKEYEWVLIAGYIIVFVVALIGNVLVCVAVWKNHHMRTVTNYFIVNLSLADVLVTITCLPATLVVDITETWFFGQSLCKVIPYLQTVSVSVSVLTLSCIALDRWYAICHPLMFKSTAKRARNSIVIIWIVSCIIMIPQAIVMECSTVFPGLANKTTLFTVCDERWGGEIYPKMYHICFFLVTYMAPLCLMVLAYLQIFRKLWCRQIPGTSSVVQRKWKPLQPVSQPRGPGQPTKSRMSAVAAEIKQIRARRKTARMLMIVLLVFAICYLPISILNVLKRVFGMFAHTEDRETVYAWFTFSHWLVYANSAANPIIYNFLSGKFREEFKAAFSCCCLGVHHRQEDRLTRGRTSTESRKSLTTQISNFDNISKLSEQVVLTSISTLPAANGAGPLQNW
# [4] = Biodistribution in male ddY mouse lung administered intravenously and measured at 2 mins postinjection by gamma counter analysis; assay type: ADME, organism-based; conditions: in vivo, iv
# [5] = Biodistribution in male ddY mouse stomach administered intravenously and measured per organ at 2 mins postinjection by gamma counter analysis; assay type: ADME, organism-based; conditions: in vivo, iv
# [6] = Biodistribution in male ddY mouse lung administered intravenously and measured at 60 mins postinjection by gamma counter analysis; assay type: ADME, organism-based; conditions: in vivo, iv, 1 h
# [7] = Biodistribution in male ddY mouse stomach administered intravenously and measured per organ at 60 mins postinjection by gamma counter analysis; assay type: ADME, organism-based; conditions: in vivo, iv, 1 h
# [8] = Biodistribution in male ddY mouse pancreas administered intravenously and measured at 30 mins postinjection by gamma counter analysis; assay type: ADME, organism-based; conditions: in vivo, iv, 0.5 h
# [9] = Biodistribution in male ddY mouse kidney administered intravenously and measured at 30 mins postinjection by gamma counter analysis; assay type: ADME, organism-based; conditions: in vivo, iv, 0.5 h
# [10] = Biodistribution in male ddY mouse blood administered intravenously and measured at 10 mins postinjection by gamma counter analysis; assay type: ADME, organism-based; conditions: in vivo, iv
# [11] = Biodistribution in male ddY mouse bone administered intravenously and measured at 2 mins postinjection by gamma counter analysis; assay type: ADME, organism-based, Bone element; conditions: in vivo, iv
# [12] = Biodistribution in male ddY mouse blood administered intravenously and measured at 2 mins postinjection by gamma counter analysis; assay type: ADME, organism-based; conditions: in vivo, iv
# [13] = Biodistribution in male ddY mouse intestine administered intravenously and measured at 30 mins postinjection by gamma counter analysis; assay type: ADME, organism-based; conditions: in vivo, iv, 0.5 h
# [14] = Biodistribution in male ddY mouse bone administered intravenously and measured at 30 mins postinjection by gamma counter analysis; assay type: ADME, organism-based, Bone element; conditions: in vivo, iv, 0.5 h
# [15] = Biodistribution in male ddY mouse kidney administered intravenously and measured at 60 mins postinjection by gamma counter analysis; assay type: ADME, organism-based; conditions: in vivo, iv, 1 h
# [16] = Biodistribution in male ddY mouse heart administered intravenously and measured at 30 mins postinjection by gamma counter analysis; assay type: ADME, organism-based; conditions: in vivo, iv, 0.5 h
# [17] = Biodistribution in male ddY mouse liver administered intravenously and measured at 10 mins postinjection by gamma counter analysis; assay type: ADME, organism-based; conditions: in vivo, iv
# [18] = Biodistribution in male ddY mouse brain administered intravenously and measured at 10 mins postinjection by gamma counter analysis; assay type: ADME, organism-based; conditions: in vivo, iv
# [19] = Biodistribution in male ddY mouse pancreas administered intravenously and measured at 60 mins postinjection by gamma counter analysis; assay type: ADME, organism-based; conditions: in vivo, iv, 1 h
# [20] = Biodistribution in male ddY mouse brain administered intravenously and measured at 60 mins postinjection by gamma counter analysis; assay type: ADME, organism-based; conditions: in vivo, iv, 1 h
# [21] = Biodistribution in male ddY mouse brain administered intravenously and measured at 2 mins postinjection by gamma counter analysis; assay type: ADME, organism-based; conditions: in vivo, iv
# [22] = Biodistribution in male ddY mouse liver administered intravenously and measured at 60 mins postinjection by gamma counter analysis; assay type: ADME, organism-based; conditions: in vivo, iv, 1 h
# [23] = Biodistribution in male ddY mouse blood administered intravenously and measured at 30 mins postinjection by gamma counter analysis; assay type: ADME, organism-based; conditions: in vivo, iv, 0.5 h
# [24] = Biodistribution in male ddY mouse heart administered intravenously and measured at 2 mins postinjection by gamma counter analysis; assay type: ADME, organism-based; conditions: in vivo, iv
# [25] = Biodistribution in male ddY mouse heart administered intravenously and measured at 60 mins postinjection by gamma counter analysis; assay type: ADME, organism-based; conditions: in vivo, iv, 1 h
# [26] = Biodistribution in male ddY mouse heart administered intravenously and measured at 10 mins postinjection by gamma counter analysis; assay type: ADME, organism-based; conditions: in vivo, iv
# [27] = Biodistribution in male ddY mouse stomach administered intravenously and measured per organ at 30 mins postinjection by gamma counter analysis; assay type: ADME, organism-based; conditions: in vivo, iv, 0.5 h
# [28] = Biodistribution in male ddY mouse liver administered intravenously and measured at 2 mins postinjection by gamma counter analysis; assay type: ADME, organism-based; conditions: in vivo, iv
# [29] = Biodistribution in male ddY mouse blood administered intravenously and measured at 60 mins postinjection by gamma counter analysis; assay type: ADME, organism-based; conditions: in vivo, iv, 1 h
# [30] = Biodistribution in male ddY mouse lung administered intravenously and measured at 30 mins postinjection by gamma counter analysis; assay type: ADME, organism-based; conditions: in vivo, iv, 0.5 h
# [31] = Biodistribution in male ddY mouse lung administered intravenously and measured at 10 mins postinjection by gamma counter analysis; assay type: ADME, organism-based; conditions: in vivo, iv
# [32] = Biodistribution in male ddY mouse spleen administered intravenously and measured at 2 mins postinjection by gamma counter analysis; assay type: ADME, organism-based; conditions: in vivo, iv
# [33] = Biodistribution in male ddY mouse spleen administered intravenously and measured at 10 mins postinjection by gamma counter analysis; assay type: ADME, organism-based; conditions: in vivo, iv
# [34] = Biodistribution in male ddY mouse intestine administered intravenously and measured at 60 mins postinjection by gamma counter analysis; assay type: ADME, organism-based; conditions: in vivo, iv, 1 h
# [35] = Biodistribution in male ddY mouse kidney administered intravenously and measured at 10 mins postinjection by gamma counter analysis; assay type: ADME, organism-based; conditions: in vivo, iv
# [36] = Biodistribution in male ddY mouse spleen administered intravenously and measured at 30 mins postinjection by gamma counter analysis; assay type: ADME, organism-based; conditions: in vivo, iv, 0.5 h
# [37] = Biodistribution in male ddY mouse kidney administered intravenously and measured at 2 mins postinjection by gamma counter analysis; assay type: ADME, organism-based; conditions: in vivo, iv
# [38] = Biodistribution in male ddY mouse stomach administered intravenously and measured per organ at 10 mins postinjection by gamma counter analysis; assay type: ADME, organism-based; conditions: in vivo, iv
# [39] = Biodistribution in male ddY mouse bone administered intravenously and measured at 10 mins postinjection by gamma counter analysis; assay type: ADME, organism-based, Bone element; conditions: in vivo, iv
# [40] = Biodistribution in male ddY mouse spleen administered intravenously and measured at 60 mins postinjection by gamma counter analysis; assay type: ADME, organism-based; conditions: in vivo, iv, 1 h
# [41] = Biodistribution in male ddY mouse brain administered intravenously and measured at 30 mins postinjection by gamma counter analysis; assay type: ADME, organism-based; conditions: in vivo, iv, 0.5 h
# [42] = Biodistribution in male ddY mouse pancreas administered intravenously and measured at 2 mins postinjection by gamma counter analysis; assay type: ADME, organism-based; conditions: in vivo, iv
# [43] = Biodistribution in male ddY mouse pancreas administered intravenously and measured at 10 mins postinjection by gamma counter analysis; assay type: ADME, organism-based; conditions: in vivo, iv
# [44] = Biodistribution in male ddY mouse intestine administered intravenously and measured at 2 mins postinjection by gamma counter analysis; assay type: ADME, organism-based; conditions: in vivo, iv
# [45] = Biodistribution in male ddY mouse intestine administered intravenously and measured at 10 mins postinjection by gamma counter analysis; assay type: ADME, organism-based; conditions: in vivo, iv
# [46] = Biodistribution in male ddY mouse liver administered intravenously and measured at 30 mins postinjection by gamma counter analysis; assay type: ADME, organism-based; conditions: in vivo, iv, 0.5 h
# [47] = Biodistribution in male ddY mouse bone administered intravenously and measured at 60 mins postinjection by gamma counter analysis; assay type: ADME, organism-based, Bone element; conditions: in vivo, iv, 1 h
smiles,measurement,setting,value
C[C@H]1CN(c2nc3ccc(F)cc3s2)CCCN1C(=O)c1ccccc1-n1nccn1,Ki,[1],0.64 nM
same,Ratio Ki,[2],8.08
same,Ki,[3],5.17 nM
C[C@H]1CN(c2nc3ccc(F)cc3s2)CCCN1C(=O)c1cc(F)ccc1-n1nccn1,Ki,[1],1.89 nM
same,Ratio Ki,[2],8.19
same,Ki,[3],15.5 nM
Cc1ccc(-n2nccn2)c(C(=O)N2CCCN(c3nc4ccc(F)cc4o3)C[C@@H]2C)c1,Ki,[1],17.7 nM
same,Ratio Ki,[2],8.8
same,Ki,[3],156 nM
C[C@H]1CN(c2nc3ccc(F)cc3s2)CCCN1C(=O)c1cc(C(F)(F)F)ccc1-n1nccn1,Ki,[1],6.67 nM
same,Ratio Ki,[2],2.85
same,Ki,[3],19 nM
Cc1ccc(-n2nccn2)c(C(=O)N2CCCN(c3nc4cc(F)ccc4o3)C[C@@H]2C)c1,Ki,[1],2.35 nM
same,Ratio Ki,[2],3.68
same,Ki,[3],8.64 nM
C[C@H]1CN(c2nc3ccc(F)cc3s2)CCCN1C(=O)c1cc([18F])ccc1-n1nccn1,Drug uptake,[4],6 % ID/g
same,Drug uptake,[5],1.03 %ID
same,Drug uptake,[6],0.61 % ID/g
same,Drug uptake,[7],2.13 %ID
same,Drug uptake,[8],0.56 % ID/g
same,Drug uptake,[9],2.32 % ID/g
same,Drug uptake,[10],3.05 % ID/g
same,Drug uptake,[11],1.5 % ID/g
same,Drug uptake,[12],4.79 % ID/g
same,Drug uptake,[13],15.4 % ID/g
same,Drug uptake,[14],0.76 % ID/g
same,Drug uptake,[15],0.88 % ID/g
same,Drug uptake,[16],0.67 % ID/g
same,Drug uptake,[17],27.5 % ID/g
same,Drug uptake,[18],1.33 % ID/g
same,Drug uptake,[19],0.36 % ID/g
same,Drug uptake,[20],0.09 % ID/g
same,Drug uptake,[21],2.64 % ID/g
same,Drug uptake,[22],12.6 % ID/g
same,Drug uptake,[23],1.1 % ID/g
same,Drug uptake,[24],6.04 % ID/g
same,Drug uptake,[25],0.42 % ID/g
same,Drug uptake,[26],2.48 % ID/g
same,Drug uptake,[27],1.18 %ID
same,Drug uptake,[28],11.5 % ID/g
same,Drug uptake,[29],0.55 % ID/g
same,Drug uptake,[30],1.11 % ID/g
same,Drug uptake,[31],3.39 % ID/g
same,Drug uptake,[32],2.15 % ID/g
same,Drug uptake,[33],1.77 % ID/g
same,Drug uptake,[34],30.5 % ID/g
same,Drug uptake,[35],4.37 % ID/g
same,Drug uptake,[36],0.42 % ID/g
same,Drug uptake,[37],7.83 % ID/g
same,Drug uptake,[38],0.98 %ID
same,Drug uptake,[39],1.18 % ID/g
same,Drug uptake,[40],0.21 % ID/g
same,Drug uptake,[41],0.29 % ID/g
same,Drug uptake,[42],5.3 % ID/g
same,Drug uptake,[43],2.88 % ID/g
same,Drug uptake,[44],2.93 % ID/g
same,Drug uptake,[45],8.38 % ID/g
same,Drug uptake,[46],20.4 % ID/g
same,Drug uptake,[47],1.24 % ID/g
Cc1ccc(-n2nccn2)c(C(=O)N2CCCN(c3nc4ccc(F)cc4s3)C[C@@H]2C)c1,Ki,[1],2.14 nM
same,Ratio Ki,[2],9.63
same,Ki,[3],20.6 nM
C[C@H]1CN(c2nc3ccccc3s2)CCCN1C(=O)c1cc(F)ccc1-n1nccn1,Ki,[1],2.33 nM
same,Ratio Ki,[2],26.9
same,Ki,[3],62.8 nM
Cc1ccc2nc(N3CCCN(C(=O)c4cc(F)ccc4-n4nccn4)[C@@H](C)C3)sc2c1,Ki,[1],7.46 nM
same,Ratio Ki,[2],3.5
same,Ki,[3],26.1 nM
Cc1ccc(-n2nccn2)c(C(=O)N2CCCN(c3nc4cc(F)ccc4s3)C[C@@H]2C)c1,Ki,[1],1.14 nM
same,Ratio Ki,[2],11.3
same,Ki,[3],12.8 nM
